# Data reported in PubChem BioAssay AID1963831 (Molecular Pharmacology Branch, DTP, NCI, 2024).
# “And” between values parts separate entries of the source, which are not always exact repeats. Equal entries are not always repeated.
# Tested on: 889142-216-R-J1-PDC complex spheroid viability
# Assay: Anticancer human tumor 889142-216-R-J1-PDC patient-derived bladder carcinoma cell line growth inhibition [POLQ]
# Conditions: for viability, T/C: stronger effect = lower value
# Protocol: Multicellular complex tumor spheroid response to Polymerase (POL) inhibitors (novobiocin, ART-558, RP6685) in combination with a variety of drugs and investigational agents in selected tumor cell lines
# The POL inhibitors (novobiocin, ART-558, and RP6685) were evaluated both individually and in combination with standard of care and investigational anticancer small molecules within a complex spheroid model of solid tumors. . Complex spheroids include a stromal component modeled by human endothelial cells (HUVEC) and fibroblasts modeled by human mesenchymal stem cells (MSCs). The concentration ranges selected for each drug and investigational agent were based upon clinically achievable concentrations if the clinical Cmax of the agent was known.
# Compounds. The drugs and investigational agents: novobiocin (NSC847541), ART-558 (NSC835418), RP-6685 (NSC848927), peposertib (NSC802822), ceralasertib (NSC780249), elimusertib (NSC800525), camonsertib (NSC841442), AZD-1390 (NSC803789), olaparib (NSC753686), talazoparib (NSC767125), rucaparib (NSC756644), sotorasib (NSC818433), MRTX-1133 (NSC836407), SN-38 (NSC673596), topotecan (NSC609699), epotoside (NSC141540), doxorubicin (NSC123127), gemcitabine (NSC613327), 5-fluorouracil (NSC19893), paclitaxel (NSC125973), vemurafenib (NSC761431), MSA-2 (NSC828583), SN-011 (NSC837082), adavosertib (NSC754352), prexasertib (NSC758257), carboplatin (NSC241240) and oxaliplatin (NSC266046), were obtained from the National Cancer Institute (NCI) Developmental Therapeutics Program Chemical Repository (21). The FDA-approved anticancer drug set is available from the Developmental Therapeutics Program at https://dtp.cancer.gov/organization/dscb/obtaining/. […] The stock solutions were prepared in dimethyl sulfoxide (DMSO, Sigma-Aldrich, St. Louis, MO, cat. D2650), except for the platinum compounds which were prepared in saline (Quality Biological, Gaithersburg, MD, cat. 114-055-101), at 800-fold the tested concentration and stored at -70 degrees C prior to their use. All drugs and investigational agents were tested over a range starting from a high concentration at or near the clinical Cmax and decreasing in half-log increments. If the clinical Cmax for an agent had not been determined, the highest concentration tested was 10 microM, except for SN-38, which was tested at a high concentration of 1 microM.
# Cell Culture. All cells were maintained in an incubator at 37 degrees C and 5% CO2 with 95% humidity. The PDC lines were cultured according to standard operating procedures established by the NCI PDMR (https://pdmr.cancer.gov). Table 3 of the manuscript, lists the cell lines along with the number of the three cell types plated to form the mct-spheroids and media for tumor cell growth. After thawing, all PDC lines, except 997537-175-T-J1-PDC and 415267-285-R-J2-PDC, were cultured in Matrigel-coated flasks prepared with a working solution of 1X Ham's F-12 nutrient mix, without supplementation (Thermo Fisher Scientific, cat. 11765054), 100 U/mL penicillin-streptomycin (Thermo Fisher Scientific, cat. 15140122), and 2.5% Matrigel (Corning Inc., Corning, NY, cat. 354248) for the first three passages. The two PDC lines 997537-175-T-J1-PDC and 415267-285-R-J2-PDC were cultured on uncoated flasks. The 857933-349-R-J2-PDC line was cultured in 6C/Colon 1B media containing advanced DMEM/F-12 (Thermo Fisher Scientific, cat. 12634028), 10 mM HEPES (Thermo Fisher Scientific, cat. 15630080), 1X GlutaMAX supplement (Thermo Fisher Scientific, cat. 35050061), 0.1 mg/mL primocin (InvivoGen, San Diego, CA, cat. ant-pm-2), 10% defined fetal bovine serum, heat inactivated (HyClone Laboratories Inc., Logan, UT, cat. SH30070.03HI), 50% L-WRN conditioned media (ATCC, cat. CRL-3276), 1.25 mM N-Acetyl-L-cysteine (Sigma-Aldrich, cat. A9165), 10 mM nicotinamide (Sigma-Aldrich, cat. N0636), 1X B-27 supplement (Thermo Fisher Scientific, cat. 17504044), 1X N-2 supplement (Thermo Fisher Scientific, cat. […]
# [1] = curve of first compound, second compound 0.0316 µM
# [2] = curve of first compound, second compound 0.1 µM
# [3] = curve of first compound, second compound 0.316 µM
# [4] = curve of first compound, second compound 1 µM
# [5] = curve of first compound, second compound 3.16 µM
# [6] = curve of first compound, second compound 10 µM
# [7] = second compound 0.0316 µM, first compound 0.0316 µM
# [8] = second compound 0.0316 µM, first compound 0.1 µM
# [9] = second compound 0.0316 µM, first compound 0.316 µM
# [10] = second compound 0.0316 µM, first compound 1 µM
# [11] = second compound 0.1 µM, first compound 0.0316 µM
# [12] = second compound 0.1 µM, first compound 0.1 µM
# [13] = second compound 0.1 µM, first compound 0.316 µM
# [14] = second compound 0.1 µM, first compound 1 µM
# [15] = second compound 0.316 µM, first compound 0.0316 µM
# [16] = second compound 0.316 µM, first compound 0.1 µM
# [17] = second compound 0.316 µM, first compound 0.316 µM
# [18] = second compound 0.316 µM, first compound 1 µM
# [19] = second compound 1 µM, first compound 0.0316 µM
# [20] = second compound 1 µM, first compound 0.1 µM
# [21] = second compound 1 µM, first compound 0.316 µM
# [22] = second compound 1 µM, first compound 1 µM
# [23] = second compound 3.16 µM, first compound 0.0316 µM
# [24] = second compound 3.16 µM, first compound 0.1 µM
# [25] = second compound 3.16 µM, first compound 0.316 µM
# [26] = second compound 3.16 µM, first compound 1 µM
# [27] = second compound 10 µM, first compound 0.0316 µM
# [28] = second compound 10 µM, first compound 0.1 µM
# [29] = second compound 10 µM, first compound 0.316 µM
# [30] = second compound 10 µM, first compound 1 µM
# 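Further: spheroids exposed to compounds for seven days.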
# 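Wherever viability, T/C is given: 100% = DMSO vehicle control viability.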
compound,measurement,setting,value
CC1COCCN1c1cc(C2(S(C)(=N)=O)CC2)nc(-c2ccnc3[nH]ccc23)n1 (stereo unspecified) + Nc1ccc(C#CCN(C(=O)Cc2ncc(C(F)(F)F)cc2C(F)(F)F)c2ccc(F)cc2)nn1,IC50,[1],2900 nM
same,IC50,[2],2590 nM
same,IC50,[3],> 10000 nM
same,IC50,[4],> 10000 nM
same,IC50,[5],> 10000 nM
same,IC50,[6],> 10000 nM
same,"viability, T/C",[7],101%
same,"viability, T/C",[8],82%
same,"viability, T/C",[9],70.8%
same,"viability, T/C",[10],59.3%
same,"viability, T/C","second compound 0.0316 µM, first compound 3.16 µM",46.1%
same,"viability, T/C","second compound 0.0316 µM, first compound 10 µM",45%
same,"viability, T/C",[11],98%
same,"viability, T/C",[12],89%
same,"viability, T/C",[13],80.8%
same,"viability, T/C",[14],56.1%
same,"viability, T/C","second compound 0.1 µM, first compound 3.16 µM",51.5%
same,"viability, T/C","second compound 0.1 µM, first compound 10 µM",42.4%
same,"viability, T/C",[15],89.5%
same,"viability, T/C",[16],74.7%
same,"viability, T/C",[17],81.8%
same,"viability, T/C",[18],60.9%
same,"viability, T/C","second compound 0.316 µM, first compound 3.16 µM",48.9%
same,"viability, T/C","second compound 0.316 µM, first compound 10 µM",51.8%
same,"viability, T/C",[19],81.8%
same,"viability, T/C",[20],79.2%
same,"viability, T/C",[21],95.3%
same,"viability, T/C",[22],63.2%
same,"viability, T/C","second compound 1 µM, first compound 3.16 µM",58.6%
same,"viability, T/C","second compound 1 µM, first compound 10 µM",42.8%
same,"viability, T/C",[23],81.7%
same,"viability, T/C",[24],89.3%
same,"viability, T/C",[25],72.1%
same,"viability, T/C",[26],59.2%
same,"viability, T/C","second compound 3.16 µM, first compound 3.16 µM",53.9%
same,"viability, T/C","second compound 3.16 µM, first compound 10 µM",56.5%
same,"viability, T/C",[27],107%
same,"viability, T/C",[28],99.2%
same,"viability, T/C",[29],111%
same,"viability, T/C",[30],62.4%
same,"viability, T/C","second compound 10 µM, first compound 3.16 µM",61%
same,"viability, T/C","second compound 10 µM, first compound 10 µM",48.4%
C=CCn1c(=O)c2cnc(Nc3ccc(N4CCN(C)CC4)cc3)nc2n1-c1cccc(C(C)(C)O)n1 + Cc1cccc(N(C)C(=O)C2C(O)CCN2c2nc(C)cc(C(F)(F)F)c2C#N)c1,IC50,[1],> 1000 nM
same,IC50,[2],> 1000 nM
same,IC50,[3],> 1000 nM
same,IC50,[4],> 1000 nM
same,IC50,[5],> 1000 nM
same,IC50,[6],> 1000 nM
same,"viability, T/C","second compound 0.0316 µM, first compound 0.00316 µM",113%
same,"viability, T/C","second compound 0.0316 µM, first compound 0.01 µM",93.8%
same,"viability, T/C",[7],103%
same,"viability, T/C",[8],101%
same,"viability, T/C",[9],90%
same,"viability, T/C",[10],55.5%
same,"viability, T/C","second compound 0.1 µM, first compound 0.00316 µM",99.3%
same,"viability, T/C","second compound 0.1 µM, first compound 0.01 µM",115%
same,"viability, T/C",[11],104%
same,"viability, T/C",[12],90.1%
same,"viability, T/C",[13],106%
same,"viability, T/C",[14],54.4%
same,"viability, T/C","second compound 0.316 µM, first compound 0.00316 µM",129%
same,"viability, T/C","second compound 0.316 µM, first compound 0.01 µM",89.5%
same,"viability, T/C",[15],99.2%
same,"viability, T/C",[16],95.8%
same,"viability, T/C",[17],75%
same,"viability, T/C",[18],69.3%
same,"viability, T/C","second compound 1 µM, first compound 0.00316 µM",118%
same,"viability, T/C","second compound 1 µM, first compound 0.01 µM",84.4%
same,"viability, T/C",[19],88.9%
same,"viability, T/C",[20],85.2%
same,"viability, T/C",[21],90.5%
same,"viability, T/C",[22],61.8%
same,"viability, T/C","second compound 3.16 µM, first compound 0.00316 µM",117%
same,"viability, T/C","second compound 3.16 µM, first compound 0.01 µM",113%
same,"viability, T/C",[23],78.2%
same,"viability, T/C",[24],111%
same,"viability, T/C",[25],80.8%
same,"viability, T/C",[26],59.8%
same,"viability, T/C","second compound 10 µM, first compound 0.00316 µM",108%
same,"viability, T/C","second compound 10 µM, first compound 0.01 µM",127%
same,"viability, T/C",[27],116%
same,"viability, T/C",[28],77%
same,"viability, T/C",[29],70.2%
same,"viability, T/C",[30],54.7%
C=CC(=O)N1CCN(c2nc(=O)n(-c3c(C)ccnc3C(C)C)c3nc(-c4c(O)cccc4F)c(F)cc23)C(C)C1 (stereo unspecified),"viability, T/C",compound 0.0316 µM,85.5% and 87.6% and 108%
same,"viability, T/C",compound 0.1 µM,90.5% and 106% and 83.7%
same,"viability, T/C",compound 0.316 µM,123% and 117% and 93.5%
same,"viability, T/C",compound 1 µM,92.1% and 126% and 116%
same,"viability, T/C",compound 3.16 µM,150% and 108% and 109%
same,"viability, T/C",compound 10 µM,106% and 105% and 97.8%
same,IC50,curve of compound,> 10000 nM
